Experimental data published in ChEMBL document CHEMBL4251578, “Design, synthesis and biological evaluation of novel 2-aminobenzamides containing dithiocarbamate moiety as histone deacetylase inhibitors and potent antitumor agents” (Eur J Med Chem, 2018).

How the values were obtained:
[1] = system: SMMC-7721; test: Cell cycle arrest in human SMMC7721 cells assessed as accumulation of cells at G2/M phase at 4 umol/L after 72 hrs by propidium iodide staining-based flow cytometric analysis (reference value: 14.14%); assay type: functional
[2] = system: SMMC-7721; test: Cell cycle arrest in human SMMC7721 cells assessed as accumulation of cells at G2/M phase at 1 umol/L after 72 hrs by propidium iodide staining-based flow cytometric analysis (reference value: 14.14%); assay type: functional
[3] = system: HeLa; test: Antiproliferative activity against human HeLa cells at 2 uM after 72 hrs by CCK-8 assay relative to control; assay type: functional
[4] = system: A-375; test: Antiproliferative activity against human A375 cells after 72 hrs by CCK-8 assay; assay type: functional, cell-based; settings: for IC50: A-375, 72 h
[5] = system: MGC-803; test: Antiproliferative activity against human MGC803 cells at 2 uM after 72 hrs by CCK-8 assay relative to control; assay type: functional; settings: MGC-803, 72 h
[6] = system: HeLa; test: Antiproliferative activity against human HeLa cells after 72 hrs by CCK-8 assay; assay type: functional, cell-based
[7] = system: SMMC-7721; test: Cell cycle arrest in human SMMC7721 cells assessed as accumulation of cells at S phase at 1 umol/L after 72 hrs by propidium iodide staining-based flow cytometric analysis (reference value: 5.21%); assay type: functional
[8] = system: SMMC-7721; test: Induction of apoptosis in human SMMC7721 cells assessed as late apoptotic cells at 1 umol/L after 72 hrs by Alexa Fluor 488 Annexin/propidium iodide staining-based flow cytometric analysis (reference value: 0.29%); assay type: functional
[9] = system: SMMC-7721; test: Induction of apoptosis in human SMMC7721 cells assessed as early apoptotic cells at 4 umol/L after 72 hrs by Alexa Fluor 488 Annexin/propidium iodide staining-based flow cytometric analysis (reference value: 0.09%); assay type: functional
[10] = system: SMMC-7721; test: Cell cycle arrest in human SMMC7721 cells assessed as accumulation of cells at S phase at 4 umol/L after 72 hrs by propidium iodide staining-based flow cytometric analysis (reference value: 5.21%); assay type: functional
[11] = system: HeLa; test: Antiproliferative activity against human HeLa cells at 8 uM after 72 hrs by CCK-8 assay relative to control; assay type: functional
[12] = system: SMMC-7721; test: Cell cycle arrest in human SMMC7721 cells assessed as accumulation of cells at G2/M phase at 0.125 umol/L after 72 hrs by propidium iodide staining-based flow cytometric analysis (reference value: 14.14%); assay type: functional
[13] = system: MGC-803; test: Antiproliferative activity against human MGC803 cells after 72 hrs by CCK-8 assay; assay type: functional, cell-based; settings: for IC50: MGC-803, 72 h
[14] = system: SMMC-7721; test: Induction of apoptosis in human SMMC7721 cells assessed as early apoptotic cells at 0.125 umol/L after 72 hrs by Alexa Fluor 488 Annexin/propidium iodide staining-based flow cytometric analysis (reference value: 0.09%); assay type: functional
[15] = system: SMMC-7721; test: Induction of apoptosis in human SMMC7721 cells assessed as viable cells at 4 umol/L after 72 hrs by Alexa Fluor 488 Annexin/propidium iodide staining-based flow cytometric analysis (reference value: 97.14%); assay type: functional; settings: SMMC-7721, 72 h, read-out: Activity
[16] = system: SMMC-7721; test: Induction of apoptosis in human SMMC7721 cells assessed as late apoptotic cells at 0.125 umol/L after 72 hrs by Alexa Fluor 488 Annexin/propidium iodide staining-based flow cytometric analysis (reference value: 0.29%); assay type: functional
[17] = system: A-375; test: Antiproliferative activity against human A375 cells at 2 uM after 72 hrs by CCK-8 assay relative to control; assay type: functional; settings: A-375, 72 h
[18] = system: SMMC-7721; test: Induction of apoptosis in human SMMC7721 cells assessed as viable cells at 0.125 umol/L after 72 hrs by Alexa Fluor 488 Annexin/propidium iodide staining-based flow cytometric analysis (reference value: 97.14%); assay type: functional; settings: SMMC-7721, 72 h, read-out: Activity
[19] = system: MGC-803; test: Antiproliferative activity against human MGC803 cells at 8 uM after 72 hrs by CCK-8 assay relative to control; assay type: functional; settings: MGC-803, 72 h
[20] = system: SMMC-7721; test: Induction of apoptosis in human SMMC7721 cells assessed as necrotic cells at 1 umol/L after 72 hrs by Alexa Fluor 488 Annexin/propidium iodide staining-based flow cytometric analysis (reference value: 2.48%); assay type: functional
[21] = system: SMMC-7721; test: Induction of apoptosis in human SMMC7721 cells assessed as early apoptotic cells at 1 umol/L after 72 hrs by Alexa Fluor 488 Annexin/propidium iodide staining-based flow cytometric analysis (reference value: 0.09%); assay type: functional
[22] = biological target: Histone deacetylase 2 (Homo sapiens, UniProt Q92769); test: Inhibition of human recombinant HDAC2 using Fluor de Lys-Green as substrate preincubated for 5 mins followed by substrate addition and measured after 1 hr by fluorescence assay
Sequence of Histone deacetylase 2 (Q92769 whole entry): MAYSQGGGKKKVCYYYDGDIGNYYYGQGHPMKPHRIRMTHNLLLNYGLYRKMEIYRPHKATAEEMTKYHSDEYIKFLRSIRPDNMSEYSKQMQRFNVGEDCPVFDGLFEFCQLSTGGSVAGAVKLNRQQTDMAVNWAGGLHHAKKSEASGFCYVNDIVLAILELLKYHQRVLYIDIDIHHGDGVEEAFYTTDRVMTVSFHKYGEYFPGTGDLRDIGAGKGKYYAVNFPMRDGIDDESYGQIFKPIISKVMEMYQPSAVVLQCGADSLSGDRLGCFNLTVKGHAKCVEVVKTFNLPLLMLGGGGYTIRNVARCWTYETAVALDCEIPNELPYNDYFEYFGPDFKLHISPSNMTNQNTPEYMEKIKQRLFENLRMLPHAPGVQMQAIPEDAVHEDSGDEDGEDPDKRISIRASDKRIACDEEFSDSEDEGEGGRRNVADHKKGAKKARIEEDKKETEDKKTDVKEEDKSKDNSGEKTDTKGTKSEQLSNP

| IC50 [4] [nM] | IC50 [6] [nM] | IC50 [13] [nM] | SMILES | Activity [1] [%] | Activity [2] [%] | inhibition at 2 µM [3] [%] | inhibition at 2 µM [5] [%] | Activity [7] [%] | Activity [8] [%] | Activity [9] [%] | Activity [10] [%] | inhibition at 8 µM [11] [%] | Activity [12] [%] | Activity [14] [%] | viability at 4 µM [15] [%] | Activity [16] [%] | inhibition at 2 µM [17] [%] | viability at 0.125 µM [18] [%] | inhibition at 8 µM [19] [%] | Activity [20] [%] | also measured |
| --- | --- | --- | --- | --- | --- | --- | --- | --- | --- | --- | --- | --- | --- | --- | --- | --- | --- | --- | --- | --- | --- |
| 1270 | 790 | 1580 | Nc1ccccc1NC(=O)c1ccc(CSC(=S)N2CCN(c3ccncc3)CC2)cc1 | 12.05 | 13.68 | 77 | 64.8 | 7.04 | 11.06 | 19.79 | 2.76 | 77.4 | 12.01 | 3.66 | 24.3 | 12.55 | 85.7 | 72.5 | 87.1 | 5.01 | Activity [4]: Dose-dependent effect; Activity [6]: Dose-dependent effect; Activity [13]: Dose-dependent effect; Activity [21]: 17.23%; IC50 [22]: 470 nM |
| 1940 | 1040 | 1370 | CCN(Cc1ccncc1)C(=S)SCc1ccc(C(=O)Nc2ccccc2N)cc1 | 48.94 | 21.11 | 63.5 | 71.6 | 7.45 | 14.06 | 23.81 | 9.19 | 77.7 | 11.92 | 2.75 | 43 | 11.22 | 67.2 | 73.1 | 85.2 | 13.18 | Activity [21]: 18.06%; IC50 [22]: 900 nM |
| 1970 | 1460 | 940 | Nc1ccccc1NC(=O)c1ccc(CSC(=S)N2CCc3ccccc3C2)cc1 | 28.31 | 23.16 | 54.4 | 80.9 | 9.25 | 12.44 | 25.36 | 7.63 | 76.3 | 15.89 | 14.71 | 46 | 10.62 | 55.5 | 71.2 | 87.5 | 2.9 | Activity [21]: 27.39%; IC50 [22]: 3230 nM |
